The target of one assay is T1, EGF Receptor (Homo sapiens, UniProt P00533).
T1 construct: expressed in transfected cells; host or cells: NIH 3T3/C7 (mouse fibroblasts engineered to express human EGF-R)
As to the kind of experiment: bio EGF (EGF Receptor ELISA). The class given is biochemical. Here is the method:
EGF Receptor kinase activity in cells genetically engineered to express human EGF-R was measured as described below:
The following materials and reagents were used:
b. 05-101 (UBI) (a monoclonal antibody recognizing an EGFR extracellular domain).
c. Anti-phosphotyrosine antibody (anti-Ptyr) (polyclonal).
d. Detection antibody: Goat anti-rabbit lgG horse radish peroxidase conjugate, TAGO, Inc., Burlingame, Calif.
Keep solution in dark at 4° C. until used.
The following protocol was used:
1. […] Coated plates are good for up to 10 days when stored at 4° C.
2. On day of use, remove coating buffer and replace with blocking buffer (5% Carnation Instant Non-Fat Dry Milk in PBS). Incubate the plate, shaking, at room temperature (about 23° C. to 25° C.) for 30 minutes. Just prior to use, remove blocking buffer and wash plate 4 times with TBST buffer.
2. Choose dishes having 80-90% confluence for the experiment. Trypsinize cells and stop reaction by adding 10% CS DMEM medium. Suspend cells in DMEM medium (10% CS DMEM medium) and centrifuge once at 1000 rpm at room temperature for 5 minutes.
3. Resuspend cells in seeding medium (DMEM, 0.5% bovine serum), and count the cells using trypan blue. Viability above 90% is acceptable. Seed cells in DMEM medium (0.5% bovine serum) at a density of 10,000 cells per well, 100 μL per well, in a 96 well microtiter plate. Incubate seeded cells in 5% CO2 at 37° C. for about 40 hours.
1. Check seeded cells for contamination using an inverted microscope. Dilute drug stock (10 mg/ml in DMSO) 1:10 in DMEM medium, then transfer 5 μL to a test well for a final drug dilution of 1:200 and a final DMSO concentration of 1%. Control wells receive DMSO alone. Incubate in 5% CO2 at 37° C. for one hour.
2. Prepare EGF ligand: dilute stock EGF in DMEM so that upon transfer of 10 μL dilute EGF (1:12 dilution), 25 nM final concentration is attained.
3. Prepare fresh 10 ml HNTG* sufficient for 100 μL per well wherein HNTG* comprises: HNTG stock (2.0 mL), milli-Q H2O (7.3 mL), EDTA, 100 mM, pH 7.0 (0.5 mL), Na3VO4 0.5 M (0.1 mL) and Na4(P2O7), 0.2 M (0.1 mL).
5. After two hours incubation with drug, add prepared EGF ligand to cells, 10 μL per well, to yield a final concentration of 25 nM. Control wells receive DMEM alone. Incubate, shaking, at room temperature, for 5 minutes.
6. Remove drug, EGF, and DMEM. Wash cells twice with PBS. Transfer HNTG* to cells, 100 μL per well. Place on ice for 5 minutes. Meanwhile, remove blocking buffer from other ELISA plate and wash with TBST as described above.
7. With a pipette tip securely fitted to a micropipettor, scrape cells from plate and homogenize cell material by repeatedly aspirating and dispensing the HNTG* lysis buffer. Transfer lysate to a coated, blocked, and washed ELISA plate. Incubate shaking at room temperature for one hour.
8. Remove lysate and wash 4 times with TBST. Transfer freshly diluted anti-Ptyr antibody to ELISA plate at 100 μL per well. Incubate shaking at room temperature for 30 minutes in the presence of the anti-Ptyr antiserum (1:3000 dilution in TBST).
9. Remove the anti-Ptyr antibody and wash 4 times with TBST. Transfer the freshly diluted TAGO 30 anti-rabbit IgG antibody to the ELISA plate at 100 μL per well. Incubate shaking at room temperature for 30 minutes (anti-rabbit IgG antibody: 1:3000 dilution in TBST).
10. Remove detection antibody and wash 4 times with TBST. Transfer freshly prepared ABTS/H2O2 solution to ELISA plate, 100 μL per well. Incubate at room temperature for 20 minutes. ABTS/H2O2 solution: 1.2 μL 30% H2O2in 10 mL ABTS stock.
11. Stop reaction by adding 50 μL 5N H2SO4 (optional), and determine O.D. at 410 nm.
12. The maximal phosphotyrosine signal is determined by subtracting the value of the negative controls from the positive controls. The percent inhibition of phosphotyrosine content for extract-containing wells is then calculated, after subtraction of the negative controls.
Background: ELISA stands for enzyme-linked immunosorbent assay.

In the next assay the target is GST-Flk1 (UniProt P35918). As to the kind of experiment: GST-FLK-1 bioassay (bio flkGST). The class given is biochemical. As for the experimental part:
This assay analyzes the tyrosine kinase activity of GST-Flk1 on poly glu tyr peptides.
2. poly glu tyr 4:1, lyophilizate (Sigma Catalog # P0275). Prepare 1 mg/mL poly glu tyr in sterile PBS and store in 1 ml aliquots at −20° C.
3. Preparation of poly glu tyr (pEY) coated assay plates: Coat 2 μg/well of poly glu tyr (pEY) in 100 μL PBS at room temperature for 2 hours or at +4° C. overnight. Cover plates well to prevent evaporation.
4. PBS Buffer: To make 1 liter of a 1× working solution, mix […], 1.15 g NA2HPO4, 0.2 g KCl and 8 g NaCl in approx. 900 mL dH2O. When all reagents have dissolved, adjust the pH to 7.2 with HCl. Bring total volume to 1L with dH2O.
5. PBS-Tw Buffer: To 1L of PBS Buffer, add […] Tween-20. Stir until dissolved.
6. TBB-Blocking Buffer: To make one liter of a 1× working solution, mix 1.21 g TRIS, 8.77 g NaCl, 1 mL TWEEN-20 in approximately 900 mL dH2O. Adjust pH to 7.2 with HCl. Add 10 g BSA, stir to dissolve. Bring total volume to 1 L with dH2O. Filter to remove particulate matter.
7. 1% BSA in PBS: To make a 1× working solution, add 10 g BSA to approx. 990 mL PBS buffer, stir to dissolve. Adjust total volume to 1 L with PBS buffer, filter to remove particulate matter.
9. GST-Flk1cd purified from sf9 recombinant baculovirus transformation.
13. Kinase Dilution Buffer (KDB): Mix 10 mL Hepes (pH 7.5), 1 mL of 5 M NaCl, 40 μL of 100 mM NaVO4 and 0.4 mL of 5% BSA in dH2O with 88.56 mL of dH2O.
14. NUNC-96-well V bottom polypropylene plates Applied Scientific Catalog # AS-72092
15. EDTA: Mix 14.12 g ethylenediaminetetraacetic acid (EDTA) to approx. 70 mL dH2O. Add 10N NaOH until EDTA dissolves. Adjust pH to 8.0. Adjust total volume to 100 mL with dH2O.
16. 1° Antibody Dilution Buffer: Mix 10 mL of 5% BSA in PBS buffer with 89.5 mL TBSTw.
17. Anti-phosphotyrosine monoclonal conjugated to horseradish peroxidase (PY99 HRP, Santa Cruz Biotech).
18. 2,2′-Azino-bis(3-ethylbenzthiazoline-6-sulfonic acid (ABTS, Moss, Cat. No. ABST).
1. Coat Corning 96 well ELISA plates with 2 μg of polyEY peptide in sterile PBS as described in step 3 of Materials and Reagents.
2. Remove unbound liquid from wells by inverting plate. Wash once with TBSTw. Pat the plate on a paper towel to remove excess liquid.
3. Add 100 μL of 1% BSA in PBS to each well. Incubate, with shaking, for 1 hr. at room temperature.
5. Soak wells with 50 mM Hepes pH7.5 (150 μL/well).
6. Dilute test compound with dH2O/4% DMSO to 4 times the desired final assay concentration in 96-well polypropylene plates.
7. Add 25 μL diluted test compound to ELISA plate.
8. Add 25 μL of 40 mM MnCl2 with 4×ATP (2 μM) to all wells.
9. Add 25 μL 0.5 M EDTA to negative control wells.
10. Dilute GST-Flk1 0.005 μg (5 ng)/well in KDB. For 50 ml KDB add 100 μL of 0.050 mg/mL GST-Flk1 enzyme.
11. Add 50 μL of diluted enzyme to each well.
12. Incubate, with shaking, for 15 minutes at room temperature.
13. Stop reaction by adding 50 μL of 250 mM EDTA (pH 8.0).
14. Wash 3× with TBSTw and pat plate on paper towel to remove excess liquid.
15. Add 100 μL per well anti-phosphotyrosine HRP conjugate, 1:5,000 dilution in antibody dilution buffer. Incubate, with shaking for 90 min. at room temperature.
16. Wash as described above in step 14.
17. Add 100 μL of room temperature ABTS solution to each well.
18. Incubate, with shaking, for 10 to 15 minutes. Remove any bubbles.
19. Stop reaction by adding 20 μL of 10% SDS.
20. Read assay on Dynatech MR7000 ELISA reader: test filter at 410 nM; reference filter at 630 nM.

A value given as a limit tells only on which side of the number the result lay.

T1 sequence (P00533 25-1210): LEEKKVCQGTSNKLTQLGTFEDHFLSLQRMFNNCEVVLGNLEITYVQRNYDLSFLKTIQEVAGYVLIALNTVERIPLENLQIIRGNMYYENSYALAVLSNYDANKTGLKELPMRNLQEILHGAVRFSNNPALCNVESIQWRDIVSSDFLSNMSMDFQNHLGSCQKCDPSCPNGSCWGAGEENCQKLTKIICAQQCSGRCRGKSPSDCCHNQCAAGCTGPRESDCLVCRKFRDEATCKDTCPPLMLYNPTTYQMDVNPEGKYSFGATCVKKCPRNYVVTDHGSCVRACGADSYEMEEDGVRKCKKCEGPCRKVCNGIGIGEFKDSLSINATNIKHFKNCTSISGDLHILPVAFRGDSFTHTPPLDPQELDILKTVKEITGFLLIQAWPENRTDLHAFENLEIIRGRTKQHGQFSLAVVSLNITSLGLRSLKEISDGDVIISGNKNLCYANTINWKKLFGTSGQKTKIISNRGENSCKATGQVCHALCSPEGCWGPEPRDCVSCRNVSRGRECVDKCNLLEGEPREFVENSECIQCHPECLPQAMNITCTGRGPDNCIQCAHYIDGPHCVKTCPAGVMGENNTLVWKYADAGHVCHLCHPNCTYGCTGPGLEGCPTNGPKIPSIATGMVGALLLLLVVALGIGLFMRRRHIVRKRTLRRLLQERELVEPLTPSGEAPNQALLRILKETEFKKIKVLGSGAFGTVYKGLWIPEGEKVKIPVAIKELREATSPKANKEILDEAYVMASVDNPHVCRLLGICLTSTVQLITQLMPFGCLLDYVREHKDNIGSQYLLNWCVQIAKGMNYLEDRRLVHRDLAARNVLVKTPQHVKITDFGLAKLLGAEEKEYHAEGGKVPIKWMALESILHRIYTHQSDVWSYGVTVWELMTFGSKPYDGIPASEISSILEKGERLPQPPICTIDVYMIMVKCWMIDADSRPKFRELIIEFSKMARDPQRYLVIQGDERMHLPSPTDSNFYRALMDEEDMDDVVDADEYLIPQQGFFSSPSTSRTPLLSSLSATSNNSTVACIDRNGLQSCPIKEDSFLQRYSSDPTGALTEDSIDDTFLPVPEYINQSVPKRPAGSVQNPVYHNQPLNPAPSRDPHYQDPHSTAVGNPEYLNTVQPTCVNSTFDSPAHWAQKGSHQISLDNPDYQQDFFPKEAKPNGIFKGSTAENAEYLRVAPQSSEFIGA

Usually IC50 stands for the concentration that inhibits the measured activity by half. The low end stands for greater potency in that assay, the high end for weaker potency in that assay. As for `O=C1Nc2cc(-c3ccccc3)ccc2C1=Cc1cc2cc(OCCN3CCOCC3)ccc2[nH]1` [IN-009, 3-[5-(2-morpholin-4-yl-ethoxy)-1H-indol-2-ylmethylene]-6-phenyl-1,3-dihydro-indol-2-one], the half-maximal inhibitory concentration (IC50) on EGF Receptor is more than 100 µM; against GST-Flk1 it was 9.42 µM.

`NS(=O)(=O)c1ccc2c(c1)C(=Cc1c[nH]c3ccccc13)C(=O)N2` [IN-065, 3-(1H-indol-3-ylmethylene)-2-oxo-2,3-dihydro-1H-indole-5-sulfonic acid amide]: the concentration for half-maximal inhibition (IC50) against GST-Flk1 was found to be 11.7 µM.

Turning to `O=C1Nc2ccc(S(=O)(=O)Nc3cccnc3)cc2C1=Cc1cc2cc(OCCN3CCCC3)ccc2[nH]1` [IN-045, 2-oxo-3-[5-(2-pyrrolidin-1-yl-ethoxy)-1H-indol-2-ylmethylene]-2,3-dihydro-1H-indole-5-sulfonic acid pyridin-3-ylamide], the half-inhibitory concentration (IC50) at EGF Receptor turned out to be 8.02 µM; on GST-Flk1 it was 0.12 µM.

Turning to `O=C1Nc2ccc(-c3ccccc3)cc2C1=Cc1cc2cc(OCCN3CCCC3)ccc2[nH]1` [IN-006, 5-phenyl-3-[5-(2-pyrrolidin-1-yl-ethoxy)-1H-indol-2-ylmethylene]-1,3-dihydro-indol-2-one], the half-inhibitory concentration (IC50) on EGF Receptor was determined as 4.69 µM; on GST-Flk1, 0.16 µM.

As to `O=C1Nc2cc(C(=O)O)ccc2C1=Cc1cc2cc(OCCN3CCCC3)ccc2[nH]1` [IN-023, 2-oxo-3-[5-(2-pyrrolidin-1-yl-ethoxy)-1H-indol-2-ylmethylene]-2,3-dihydro-1H-indole-6-carboxylic acid], the values for the IC50 against EGF Receptor and against GST-Flk1 were more than 20 µM and 0.24 µM, respectively.

Consider `NS(=O)(=O)c1ccc2c(c1)C(=Cc1cc3cc(OCCN4CCCC4)ccc3[nH]1)C(=O)N2` [IN-039, 2-oxo-3-[5-(2-pyrrolidin-1-yl-ethoxy)-1H-indol-2-ylmethylene]-2,3-dihydro-1H-indole-5-sulfonic acid amide], for which the IC50 on EGF Receptor is more than 100 µM; against GST-Flk1 it was 0.17 µM.

Consider `O=C1Nc2ccc(S(=O)(=O)Nc3cccc(Cl)c3)cc2C1=Cc1cc2cc(OCCN3CCOCC3)ccc2[nH]1` [IN-059, 3-[5-(2-morpholin-4-yl-ethoxy)-1H-indol-2-ylmethylene]-2-oxo-2,3-dihydro-1H-indole-5-sulfonic acid (3-chloro-phenyl)-amide], for which the IC50 against EGF Receptor is more than 20 µM; against GST-Flk1, 0.63 µM.

As to `O=C1Nc2ccc(S(=O)(=O)N3CCc4ccccc4C3)cc2C1=Cc1cc2cc(OCCN3CCOCC3)ccc2[nH]1` [IN-063, 5-(3,4-dihydro-1H-isoquinoline-2-sulfonyl)-3-[5-(2-morpholin-4-yl-ethoxy)-1H-indol-2-ylmethylene]-1,3-dihydro-indol-2-one], the half-inhibitory concentration (IC50) was more than 20 µM on EGF Receptor and 14.3 µM against GST-Flk1.

With `CCN(CC)CCCc1ccc2[nH]c(C=C3C(=O)Nc4ccccc43)cc2c1` [IN-001, 3-[5-(3-diethylamino-propyl)-1H-indol-2-ylmethylene]-1,3-dihydro-indol-2-one], the 50% inhibitory concentration (IC50) against EGF Receptor was more than 100 µM; at GST-Flk1, 0.86 µM.

In the case of `CCN(CC)CCCc1ccc2[nH]c(C=C3C(=O)Nc4ccc(Br)cc43)cc2c1` [IN-002, 5-bromo-3-[5-(3-diethylamino-propyl)-1H-indol-2-ylmethylene]-1,3-dihydro-indol-2-one], the 50% inhibitory concentration (IC50) against EGF Receptor was found to be 2.87 µM; on GST-Flk1 it was 0.03 µM.

Regarding `CCN(CC)CCOc1ccc2[nH]c(C=C3C(=O)Nc4ccc(Br)cc43)cc2c1` [IN-017, 5-bromo-3-[5-(2-diethylamino-ethoxy)-1H-indol-2-ylmethylene]-1,3-dihydro-indol-2-one], the values for the half-maximal inhibitory concentration (IC50) against EGF Receptor and against GST-Flk1 were 4.67 µM and 0.01 µM, respectively.

As to `O=C1Nc2cccc(CCO)c2C1=Cc1cc2cc(OCCN3CCCC3)ccc2[nH]1` [IN-024, 4-(2-hydroxy-ethyl)-3-[5-(2-pyrrolidin-1-yl-ethoxy)-1H-indol-2-ylmethylene]-1,3-dihydro-indol-2-one], the IC50 at EGF Receptor is more than 20 µM; against GST-Flk1, less than 0.01 µM.

For `COc1ccccc1-c1ccc2c(c1)NC(=O)C2=Cc1cc2cc(OCCN3CCOCC3)ccc2[nH]1` [IN-037, 6-(2-methoxy-phenyl)-3-[5-(2-morpholin-4-yl-ethoxy)-1H-indol-2-ylmethylene]-1,3-dihydro-indol-2-one], the half-inhibitory concentration (IC50) against EGF Receptor is more than 20 µM; against GST-Flk1, 4.38 µM.

Values taken from patent publication US6706709B2, “Indolinone derivatives as protein kinase/phosphatase inhibitors” (Sugen, Inc., priority 2000, dated 2004).
